Experimental data published in patent US20150119698A1, “Compositions Comprising Near-Infrared Fluorescent Particles And Uses Thereof For Imaging Activated Immune Cells In the CNS” (priority 2012, published 2015).

Experiments:
[1] = test system: brains of mice 6 days post infection with P. berghei ANKA versus naïve mice; settings: mouse, in vivo
Protocol: In an additional experiment, C57 black mice were infected with 80,000 parasites (P. berghei ANKA). […] Mice were scanned by IVIS™ optical imager. The measurements were performed for 5 hours. For each mouse, the intensity of brain ICG emission was compared to that of the foot. […] Five hours post injection mice were sacrificed and brains were scanned by TYPHOON™ imager.

[2] = test system: brain of mice following infection with Plasmodium berghei ANKA or naïve mice; assay: Probe distribution into the CNS in experimental cerebral malaria, images 4 hours post injection; type: in vivo; settings: tail vein injection

CC1(C)C(/C=C/C=C/C=C/C=C2\N(CCCCS(=O)(=O)O)c3ccc4ccccc4c3C2(C)C)=[N+](CCCCS(=O)(=O)[O-])c2ccc3ccccc3c21 [free ICG, Indocyanine green]
brain emission, infected versus naïve mice (statistical difference) [1]: not statistically different | uptake into the brain of diseased mice ([2]; mice infected with Plasmodium berghei ANKA): but not free ICG, were preferentially uptaken into the brain | fluorescence in the brain of naïve mice ([2]; naïve mice): no significant fluorescence
